Reference: patent publication US12344600B2, “c-Myc mRNA translation modulators and uses thereof in the treatment of cancer” (Anima Biotech Inc., priority 2022, dated 2025)

System: c-Myc
Assay: c-Myc immunofluorescence assay
Format: cell-based, human
Details: A549 cells, 24 hours, anti-c-Myc immunofluorescence
How it was run: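 Read-out is imaged c-Myc immunofluorescence, nucleus-segmented, in A549 lung carcinoma cells exposed to compound dose series for 24 h after 48 h growth. Fixation 4% paraformaldehyde, Triton permeabilization, antibody staining at room temperature; EC50 from logistic fit of signal versus concentration.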

Row | SMILES | Myc Efficacy (−LogEC50)
1 | COc1ccc(-c2noc(N3CCC(C(=O)NCC4CCN(C[C@@H]5CCCN5)C4)CC3)n2)cc1 (stereo partly drawn) [Compound 392, 1-(3-(4-methoxyphenyl)-1,2,4-oxadiazol-5-yl)-N-((1-(((S)-pyrrolidin-2-yl)methyl)pyrrolidin-3-yl)methyl)piperidine-4-carboxamide] | + (+ >3 and <5)
2 | COc1ccc(-c2noc(N3CCC(C(=O)NCC4CCN(CC5CC(F)(F)C5)C4)CC3)n2)cc1 (stereo not shown) [Compound 393, N-((1-((3,3-difluorocyclobutyl)methyl)pyrrolidin-3-yl)methyl)-1-(3-(4-methoxyphenyl)-1,2,4-oxadiazol-5-yl)piperidine-4-carboxamide] | + (+ >3 and <5)
3 | COc1ccc(-c2noc(N3CCC(C(=O)NCC4CCN(CC5CC(N)C5)C4)CC3)n2)cc1 (stereo not shown) [Compound 394, N-((1-(((1s,3s)-3-aminocyclobutyl)methyl)pyrrolidin-3-yl)methyl)-1-(3-(4-methoxyphenyl)-1,2,4-oxadiazol-5-yl)piperidine-4-carboxamide] | + (+ >3 and <5)
4 | COc1ccc(-c2noc(N3CCC(C(=O)NCC4CCN(CC5CCO5)C4)CC3)n2)cc1 (stereo not shown) [Compound 395, 1-(3-(4-methoxyphenyl)-1,2,4-oxadiazol-5-yl)-N-((1-(oxetan-2-ylmethyl)pyrrolidin-3-yl)methyl)piperidine-4-carboxamide] | + (+ >3 and <5)
5 | COc1ccc(-c2noc(N3CCC(C(=O)NCC4CCN(C5CCCOC5)C4)CC3)n2)cc1 (stereo not shown) [Compound 396, 1-(3-(4-methoxyphenyl)-1,2,4-oxadiazol-5-yl)-N-((1-(tetrahydro-2H-pyran-3-yl)pyrrolidin-3-yl)methyl)piperidine-4-carboxamide] | + (+ >3 and <5)
6 | COc1ccc(-c2noc(N3CCC(C(=O)NCC4CCN(C(C)CO)C4)CC3)n2)cc1 (stereo not shown) [Compound 397, N-((1-(1-hydroxypropan-2-yl)pyrrolidin-3-yl)methyl)-1-(3-(4-methoxyphenyl)-1,2,4-oxadiazol-5-yl)piperidine-4-carboxamide] | − (− ≤3)
7 | COc1ccc(-c2noc(N3CCC(C(=O)NCC4CCN(C5CCOCC5)C4)CC3)n2)cc1 (stereo not shown) [Compound 398, 1-(3-(4-methoxyphenyl)-1,2,4-oxadiazol-5-yl)-N-((1-(tetrahydro-2H-pyran-4-yl)pyrrolidin-3-yl)methyl)piperidine-4-carboxamide] | + (+ >3 and <5)
8 | COc1ccc(-c2noc(N3CCC(C(=O)NCC4CCN(C5CC6(COC6)C5)C4)CC3)n2)cc1 (stereo not shown) [Compound 399, N-((1-(2-oxaspiro[3.3]heptan-6-yl)pyrrolidin-3-yl)methyl)-1-(3-(4-methoxyphenyl)-1,2,4-oxadiazol-5-yl)piperidine-4-carboxamide] | + (+ >3 and <5)
9 | COc1ccc(-c2noc(N3CCC(C(=O)NCC4CCN(C5CCCOCC5)C4)CC3)n2)cc1 (stereo not shown) [Compound 400, 1-(3-(4-methoxyphenyl)-1,2,4-oxadiazol-5-yl)-N-((1-(oxepan-4-yl)pyrrolidin-3-yl)methyl)piperidine-4-carboxamide] | + (+ >3 and <5)
10 | COc1ccc(-c2noc(N3CCC(C(=O)NCC4CCN(C5COC5)C4)CC3)n2)cc1 (stereo not shown) [Compound 401, 1-(3-(4-methoxyphenyl)-1,2,4-oxadiazol-5-yl)-N-((1-(oxetan-3-yl)pyrrolidin-3-yl)methyl)piperidine-4-carboxamide] | + (+ >3 and <5)
11 | COc1ccc(-c2noc(N3CCC(C(=O)NCC4CCN(C5CCOC(C)C5)C4)CC3)n2)cc1 (stereo not shown) [Compound 402, 1-(3-(4-methoxyphenyl)-1,2,4-oxadiazol-5-yl)-N-((1-(2-methyltetrahydro-2H-pyran-4-yl)pyrrolidin-3-yl)methyl)piperidine-4-carboxamide] | + (+ >3 and <5)
12 | COc1ccc(-c2noc(N3CCC(C(=O)Nc4ccc5c(c4)CCN5C)CC3)n2)cc1 [Compound 403, 1-(3-(4-methoxyphenyl)-1,2,4-oxadiazol-5-yl)-N-(1-methylindolin-5-yl)piperidine-4-carboxamide] | + (+ >3 and <5)
13 | COc1ccc(-c2noc(N3CCC(C(=O)NCC4CCN(Cc5scnc5C)C4)CC3)n2)cc1 (stereo not shown) [Compound 404, 1-(3-(4-methoxyphenyl)-1,2,4-oxadiazol-5-yl)-N-((1-((4-methylthiazol-5-yl)methyl)pyrrolidin-3-yl)methyl)piperidine-4-carboxamide] | ++ (++ ≥5 and <6)
14 | COc1ccc(-c2noc(N3CCC(C(=O)NCC4CCN(CC5CCCO5)C4)CC3)n2)cc1 (stereo not shown) [Compound 405, 1-(3-(4-methoxyphenyl)-1,2,4-oxadiazol-5-yl)-N-((1-((tetrahydrofuran-2-yl)methyl)pyrrolidin-3-yl)methyl)piperidine-4-carboxamide] | + (+ >3 and <5)
15 | COc1ccc(-c2noc(N3CCC(C(=O)NCC4CCN(Cc5occc5C)C4)CC3)n2)cc1 (stereo not shown) [Compound 406, 1-(3-(4-methoxyphenyl)-1,2,4-oxadiazol-5-yl)-N-((1-((3-methylfuran-2-yl)methyl)pyrrolidin-3-yl)methyl)piperidine-4-carboxamide] | + (+ >3 and <5)
16 | COc1ccc(-c2noc(N3CCC(C(=O)NCC4CCN(Cc5ncc(C)s5)C4)CC3)n2)cc1 (stereo not shown) [Compound 407, 1-(3-(4-methoxyphenyl)-1,2,4-oxadiazol-5-yl)-N-((1-((5-methylthiazol-2-yl)methyl)pyrrolidin-3-yl)methyl)piperidine-4-carboxamide] | ++ (++ ≥5 and <6)
17 | COc1ccc(-c2noc(N3CCC(C(=O)NCC4CCN(CC5COC5)C4)CC3)n2)cc1 (stereo not shown) [Compound 408, 1-(3-(4-methoxyphenyl)-1,2,4-oxadiazol-5-yl)-N-((1-(oxetan-3-ylmethyl)pyrrolidin-3-yl)methyl)piperidine-4-carboxamide] | + (+ >3 and <5)
18 | COc1ccc(-c2noc(N3CCC(C(=O)NCC4CCN(CC5=CCCCC5)C4)CC3)n2)cc1 (stereo not shown) [Compound 409, N-((1-(cyclohex-1-en-1-ylmethyl)pyrrolidin-3-yl)methyl)-1-(3-(4-methoxyphenyl)-1,2,4-oxadiazol-5-yl)piperidine-4-carboxamide] | ++ (++ ≥5 and <6)
19 | COc1ccc(-c2noc(N3CCC(C(=O)NCC4CCN(CC=C(C)C)C4)CC3)n2)cc1 (stereo not shown) [Compound 410, 1-(3-(4-methoxyphenyl)-1,2,4-oxadiazol-5-yl)-N-((1-(3-methylbut-2-en-1-yl)pyrrolidin-3-yl)methyl)piperidine-4-carboxamide] | ++ (++ ≥5 and <6)
20 | COc1ccc(-c2noc(N3CCC(C(=O)NCC4CCN(CCC(C)C)C4)CC3)n2)cc1 (stereo not shown) [Compound 411, N-((1-isopentylpyrrolidin-3-yl)methyl)-1-(3-(4-methoxyphenyl)-1,2,4-oxadiazol-5-yl)piperidine-4-carboxamide] | ++ (++ ≥5 and <6)
21 | COc1ccc(-c2noc(N3CCC(C(=O)NCC4CCN(C[C@@H]5CCCNC5)C4)CC3)n2)cc1 (stereo partly drawn) [Compound 412, 1-(3-(4-methoxyphenyl)-1,2,4-oxadiazol-5-yl)-N-((1-(((R)-piperidin-3-yl)methyl)pyrrolidin-3-yl)methyl)piperidine-4-carboxamide] | − (− ≤3)
22 | COc1ccc(-c2noc(N3CCC(C(=O)NCC4CCN(C[C@H]5CCN5)C4)CC3)n2)cc1 (stereo partly drawn) [Compound 413, N-((1-(((R)-azetidin-2-yl)methyl)pyrrolidin-3-yl)methyl)-1-(3-(4-methoxyphenyl)-1,2,4-oxadiazol-5-yl)piperidine-4-carboxamide] | − (− ≤3)
23 | COc1ccc(-c2noc(N3CCC(C(=O)NCC4CCN(C[C@H]5CCCCN5C)C4)CC3)n2)cc1 (stereo partly drawn) [Compound 414, 1-(3-(4-methoxyphenyl)-1,2,4-oxadiazol-5-yl)-N-((1-(((R)-1-methylpiperidin-2-yl)methyl)pyrrolidin-3-yl)methyl)piperidine-4-carboxamide] | + (+ >3 and <5)
24 | COc1ccc(-c2noc(N3CCC(C(=O)NCC4CCN(C[C@H]5CCCCN5)C4)CC3)n2)cc1 (stereo partly drawn) [Compound 415, 1-(3-(4-methoxyphenyl)-1,2,4-oxadiazol-5-yl)-N-((1-(((R)-piperidin-2-yl)methyl)pyrrolidin-3-yl)methyl)piperidine-4-carboxamide] | + (+ >3 and <5)
25 | COc1ccc(-c2noc(N3CCC(C(=O)NCC4CCN(C(C)C5CCOCC5)C4)CC3)n2)cc1 (stereo not shown) [Compound 416, 1-(3-(4-methoxyphenyl)-1,2,4-oxadiazol-5-yl)-N-((1-(1-(tetrahydro-2H-pyran-4-yl)ethyl)pyrrolidin-3-yl)methyl)piperidine-4-carboxamide] | + (+ >3 and <5)
26 | COc1ccc(-c2noc(N3CCN(C(=O)NCc4cc5ccccc5[nH]4)CC3)n2)cc1 [Compound 417, N-((1H-indol-2-yl)methyl)-4-(3-(4-methoxyphenyl)-1,2,4-oxadiazol-5-yl)piperazine-1-carboxamide] | ++ (++ ≥5 and <6)
27 | COc1ccc(-c2noc(N3CCC(C(=O)NCc4cc5cccnc5[nH]4)CC3)n2)cc1 [Compound 418, N-((1H-pyrrolo[2,3-b]pyridin-2-yl)methyl)-1-(3-(4-methoxyphenyl)-1,2,4-oxadiazol-5-yl)piperidine-4-carboxamide] | + (+ >3 and <5)
28 | COc1ccc(-c2noc(N3CCC(C(=O)NCc4nc5ccccc5[nH]4)CC3)n2)cc1 [Compound 419, N-((1H-benzo[d]imidazol-2-yl)methyl)-1-(3-(4-methoxyphenyl)-1,2,4-oxadiazol-5-yl)piperidine-4-carboxamide] | ++ (++ ≥5 and <6)
